Data taken from patent US6812243B2, “Indole derivatives and their use for the treatment of malignant and other diseases based on pathological proliferation” (Zentaris AG, priority 1998, dated 2004).

Row | Compound | melting point
1 | COc1ccc2c(c1)cc(C(OC)(c1ccccc1)c1cc3cc(OC)ccc3n1S(=O)(=O)c1ccccc1)n2S(=O)(=O)c1ccccc1 [Example 7, Di-(5-Methyloxy-1-phenylsulphonylindol-2-yl)phenyl-methyloxymethane] | 100 to 101 °C
2 | CN(C)Cc1c(C(O)c2cc3ccccc3n2S(=O)(=O)c2ccccc2)n(S(=O)(=O)c2ccccc2)c2ccccc12 (centres unmarked) [Example 8, (3-Dimethylaminomethyl-1-phenylsulphonylindol-2-yl)(1-phenylsulphonylindol-2-yl)methan-1-ol] | 116 to 117 °C
3 | COc1ccc2cc(C(O)c3cc4ccccc4n3S(=O)(=O)c3ccccc3)n(S(=O)(=O)c3ccccc3)c2c1 (centres unmarked) [Example 11, 6-Methoxy-1-phenylsulphonyl-1H-2-indolyl(1-phenylsulphonyl-1H-2-indolyl)methanol] | 180 °C
4 | COc1cccc2cc(C(O)c3cc4ccccc4n3S(=O)(=O)c3ccccc3)n(S(=O)(=O)c3ccccc3)c12 (centres unmarked) [Example 12, 7-Methoxy-1-phenylsulphonyl-1H-2-indolyl(1-phenylsulphonyl-1H-2-indolyl)methanol] | 148 to 150 °C
5 | COc1ccc2c(c1)cc(C(=O)c1cc3ccccc3n1S(=O)(=O)c1ccccc1)n2S(=O)(=O)c1ccccc1 [Example 17, (5-Methoxy-N-phenylsulphonylindol-2-yl)-(N-phenylsulphonylindol-2-yl)methan-1-one] | 205 °C
6 | COc1ccc2[nH]c(C(=O)c3cc4cc(OC)ccc4[nH]3)cc2c1 [Example 21, Bis(5-methoxyindol-2-yl)-1-methanone] | 202 to 204 °C
7 | COc1ccc2[nH]c(C(=O)c3cc4ccccc4s3)cc2c1 [Example 28, Benzo[b]thiophen-2-yl(5-methoxy-1H-2-indolyl)-1-methanone] | 200 °C
8 | COc1cccc2cc(C(=O)c3cc4ccccc4n3S(=O)(=O)c3ccccc3)n(S(=O)(=O)c3ccccc3)c12 [Example 29, 7-Methoxy-1-phenylsulphonyl-1H-2-indolyl(1-phenyl-sulphonyl-1H-2-indolyl)methanone] | 129 to 130 °C
9 | COc1cccc2cc(C(=O)c3cc4ccccc4[nH]3)[nH]c12 [Example 30, 7-Methoxy-1H-2-indolyl(1H-2-indolyl)methanone] | 151 °C
10 | COc1ccc2cc(C(=O)c3cc4ccccc4n3S(=O)(=O)c3ccccc3)n(S(=O)(=O)c3ccccc3)c2c1 [Example 31, 6-Methoxy-1-phenylsulphonyl-1H-2-indolyl(1-phenylsulphonyl-1H-2-indolyl)methanone] | 184 to 186 °C
11 | COc1ccc2cc(C(=O)c3cc4ccccc4[nH]3)[nH]c2c1 [Example 32, 6-Methoxy-1H-2-indolyl(1H-2-indolyl)methanone] | 184 to 186 °C
12 | O=C(c1cc2ccccc2[nH]1)c1cc2cc(OCc3ccccc3)ccc2[nH]1 [Example 42, 5-Benzyloxy-1H-2-indolyl(1H-2-indolyl)methanone] | 199 to 201 °C
13 | O=C(c1cc2ccccc2[nH]1)c1cc2cc(O)ccc2[nH]1 [Example 43, 5-Hydroxy-1H-2-indolyl(1H-2-indolyl)methanone] | > 220 °C
14 | CCOc1ccc2[nH]c(C(=O)c3cc4ccccc4[nH]3)cc2c1 [Example 44, 5-Ethoxy-1H-2-indolyl(1H-2-indolyl)methanone] | 168 to 169 °C
15 | O=C(c1cc2ccccc2[nH]1)c1cc2cc(OCCCCI)ccc2[nH]1 [Example 47, 5-(4-Iodobutyloxy)-1H-2-indolyl(1H-2-indolyl)methanone] | 110 to 113 °C
16 | O=C(c1cc2ccccc2[nH]1)c1cc2cc(OCC3CCCCC3)ccc2[nH]1 [Example 49, 5-Cyclohexylmethyloxy-1H-2-indolyl(1H-2-indolyl)-methanone] | 185 °C (dec.)
17 | O=C(c1cc2ccccc2[nH]1)c1cc2cc(OCCCCCI)ccc2[nH]1 [Example 50, 5-(5-Iodopentyloxy)-1H-2-indolyl(1H-2-indolyl)methanone] | 127 to 130 °C
18 | CN(C)CC(=O)Oc1ccc2[nH]c(C(=O)c3cc4ccccc4[nH]3)cc2c1 [Example 56] | 215 to 217 °C
19 | CCC(=O)Oc1ccc2[nH]c(C(=O)c3cc4ccccc4[nH]3)cc2c1 [Example 57] | > 230 °C

Row | Compound | melting point
20 | COc1ccc2c(c1)cc(Cc1cc3cc(OC)ccc3n1S(=O)(=O)c1ccccc1)n2S(=O)(=O)c1ccccc1 [Example 71, Bis(5-methoxy-N-phenylsulphonylindol-2-yl)methane] | 159 to 160 °C
21 | COc1ccc2c(c1)cc(Cc1cc3ccccc3n1S(=O)(=O)c1ccccc1)n2S(=O)(=O)c1ccccc1 [Example 72, (5-Methoxy-N-phenylsulphonylindol-2-yl)-(N-phenyl-sulphonylindol-2-yl)methane] | 98 to 100 °C
22 | COc1ccc2c(c1)cc(Cc1cc3cccc(OC)c3n1S(=O)(=O)c1ccccc1)n2S(=O)(=O)c1ccccc1 [Example 73, (5-Methoxy-N-phenylsulphonylindol-2-yl)-(7-methoxy-N-phenylsulphonylindol-2-yl)methane] | 168 to 170 °C
23 | COc1ccc2[nH]c(C(=O)c3cc4ccccc4[nH]3)cc2c1 [Example 75, (5-Methoxyindol-2-yl)-(indol-2-yl)methanone] | 112 °C
24 | COc1ccc2[nH]c3c(c2c1)C1=C(C(=O)NC1=O)c1c([nH]c2ccccc12)C3 [Example 82, 1,2,3,8,9,10-Hexahydro-5-methoxyindolo[3′,2′:5,6]-pyrrolo[3′,4′:3,4]-cyclohepta[b]indole-1,3-dione] | > 350 °C
25 | CN1C(=O)C2=C(C1=O)c1c([nH]c3ccccc13)CCc1[nH]c3ccccc3c12 [Example 84, 1,2,3,8,9,10,11-Heptahydro-2-methylindolo[3′,2′:5,6]-pyrrolo[3′,4′:3,4]-cycloocta[b]indole-1,3-dione] | > 350 °C
26 | O=C1C2=C(C(=O)N1COCc1ccccc1)c1c([nH]c3ccccc13)Cc1[nH]c3ccccc3c12 [Example 85, 2-Benzyloxymethyl-1,2,3,8,9,10-hexahydroindolo-[3′,2′:5,6]-pyrrolo[3′,4′:3,4]-cyclohepta[b]indole-1,3-dione] | > 350 °C
27 | CN(C)CCn1c2c(c3ccccc31)C1=C(C(=O)OC1=O)c1c([nH]c3ccccc13)C2 [Example 87, 3,8,9,10-Tetrahydro-8-[2-(N,N-dimethylamino)ethyl]-1H-indolo[3′,2′:5,6]furo[3′,4′:3,4]cyclohepta[b]indole-1,3-dione] | > 350 °C
28 | CN(C)CCn1c2c(c3ccccc31)C1=C(C(=O)N(COCc3ccccc3)C1=O)c1c([nH]c3ccccc13)C2 [Example 88, 2-Benzyloxymethyl-1,2,3,8,9,10-hexahydro-8-[2-(N,N-di-methylamino)ethyl]indolo[3′,2′:5,6]pyrrolo[3′,4′:3,4]-cyclohepta[b]indole-1,3-dione] | 164 to 165 °C
29 | CN(C)CCn1c2c(c3ccccc31)C1=C(C(=O)NC1=O)c1c([nH]c3ccccc13)C2 [Example 90, 1,2,3,8,9,10-Hexahydro-8-[2-(N,N-dimethylamino)ethyl]-indolo[3′,2′:5,6]pyrrolo[3′,4′:3,4]cyclohepta[b]indole-1,3-dione] | 213 to 214 °C
30 | CN1C(=O)C(Br)=C(c2c(CCc3cc4ccccc4[nH]3)[nH]c3ccccc23)C1=O [Example 91, 3-Bromo-4-(2-(2-(1H-2-indolyl)ethyl)-1H-3-indolyl)-1-methyl-2,5-dihydro-1H-pyrrole-2,5-dione] | 169 °C
31 | CN1C(=O)C(Br)=C(c2c(CCCCc3cc4ccccc4[nH]3)[nH]c3ccccc23)C1=O [Example 92, 3-Bromo-4-(2-(4-(1H-2-indolyl)butyl)-1H-3-indolyl)-1-methyl-2,5-dihydro-1H-pyrrole-2,5-dione] | 165 °C (dec.)
32 | CN1C(=O)C(Br)=C(c2c(CCCCCc3cc4ccccc4[nH]3)[nH]c3ccccc23)C1=O [Example 93, 3-Bromo-4-(2-(5-(1H-2-indolyl)pentyl)-1H-3-indolyl)-1-methyl-2,5-dihydro-1H-pyrrole-2,5-dione] | 125 °C (dec.)
33 | O=C(c1c[nH]c2ccccc12)c1c[nH]c2ccccc12 [Example 94, Bis(indol-3-yl)methanone] | 297 to 299 °C
34 | CN1C(=O)C(Br)=C(c2c(CCCCCc3[nH]c4ccccc4c3C3=C(Br)C(=O)N(C)C3=O)[nH]c3ccccc23)C1=O [Example 112, 3-Bromo-4-(2-(5-(3-(4-bromo-1-methyl-2,5-dioxo-2,5-dihydro-1H-3-pyrrolyl)-1H-2-indolyl)pentyl)-1H-3-indolyl)-1-methyl-2,5-dihydro-1H-pyrrole-2,5-dione] | 137 °C (dec.)
35 | O=C1NC(=O)C(c2c(CCCc3[nH]c4ccccc4c3C3=C(Br)C(=O)NC3=O)[nH]c3ccccc23)=C1Br [Example 113, 3-Bromo-4-(2-(3-(3-(4-bromo-2,5-dioxo-2,5-dihydro-1H-3-pyrrolyl)-1H-2-indolyl)propyl)-1H-3-indolyl)-2,5-dihydro-1H-pyrrole-2,5-dione] | > 350 °C
36 | O=C1NC(=O)C(c2c(CCCCCc3[nH]c4ccccc4c3C3=C(Br)C(=O)NC3=O)[nH]c3ccccc23)=C1Br [Example 114, 3-Bromo-4-(2-(5-(3-(4-bromo-2,5-dioxo-2,5-dihydro-1H-3-pyrrolyl)-1H-2-indolyl)pentyl)-1H-3-indolyl)-2,5-dihydro-1H-pyrrole-2,5-dione] | > 350 °C (dec.)
37 | O=C1NC(=O)C(c2c(CCCCCCCCc3[nH]c4ccccc4c3C3=C(Br)C(=O)NC3=O)[nH]c3ccccc23)=C1Br [Example 115, 3-Bromo-4-(2-(8-(3-(4-bromo-2,5-dioxo-2,5-dihydro-1H-3-pyrrolyl)-1H-2-indolyl)octyl)-1H-3-indolyl)-2,5-dihydro-1H-pyrrole-2,5-dione] | 180 °C (dec.)
38 | CN1C(=O)C(Br)=C(c2c(CCc3[nH]c4ccccc4c3C3=C(Br)C(=O)N(C)C3=O)[nH]c3ccccc23)C1=O [Example 116, 3-Bromo-4-(2-(2-(3-(4-bromo-1-methyl-2,5-dioxo-2,5-dihydro-1H-3-pyrrolyl)-1H-2-indolyl)ethyl)-1H-3-indolyl)-1-methyl-2,5-dihydro-1H-pyrrole-2,5-dione] | 179 °C
